# Assay results reported in patent US20070093520A1, “Method of treatment of diarrhea-predominant irritable bowel syndrome in a subject” (priority 2005, published 2007).
# Tested on: diarrhea-predominant IBS subjects
# Format: in vivo, human
# Conditions: TEAE incidence, 2 mg, Safety Population; PT
# Experimental: The study was performed in approximately 150 study centers. Approximately 1600 eligible subjects were to be given cilansetron 2 mg TID. At Visit 1, pre-treatment assessments were conducted. […] Subjects were to return to the study site one month later for Visit 3 (Day 31) for their first interim assessment. […] All subjects who discontinued from the study were to have the same post-study assessments required at Visit 7 performed at their early termination visit. […]
# Stool specimens were analyzed at every visit for occult blood. An independent GERB had been established to provide advice on GI AEs during the course of the study.
# Adverse events were assessed at Baseline, at each clinic visit, and at the end of the study (Month 12 or the early termination visit). All AEs, which occurred during the study were followed up in accordance with good medical practice until resolved or judged no longer clinically significant, or if a condition was chronic, until fully characterized. Adverse events could occur in the specified follow-up period and, regardless of the interval since the last administration of the study medication, were treated in the same manner as an AE which occurred during the treatment with study medication. Each AE was evaluated for duration, severity, seriousness, and causal relationship to the investigational drug. The action taken and the outcome were also recorded.
# Specifically, subjects who were lost to follow-up and had no post-Baseline contact with the site were excluded from the Safety population. The subjects who discontinued from the study due to lost to follow-up were identified based on the information collected on the study termination CRF page.
# After the pretreatment assessment at Visit 1 (Days […] to −3), subjects were to return to the study site for a Baseline assessment and start the treatment at Visit 2 (Day 1).
# For the by time-interval analyses of disposition, prevalence of AEs, and of markedly abnormal and predefined changes in laboratory values, vital signs, and ECGs, the following interval windows were used:
# Adverse events that were already present prior to the first dose of cilansetron study medication but increased in severity afterwards were considered as treatment-emergent.
# The 5% cutoff point was based on the incidence within higher level terms.
# Subjects were counted at most once for each primary system organ class and preferred term. Serious AEs that resolved prior to receiving study medication or occurred more than 30 days after the last dose of study medication were not included in the incidence tables. A listing of all SAEs is presented; SAEs with onset prior to receiving study medication or more than 30 days after discontinuation of study medication were flagged. The listing presents lower level term and preferred term of the SAE, severity, action taken, outcome, and relationship of the SAE, start and stop date of the SAE, study day of onset of the SAE, age, race, and sex.
structure (smiles),measurement,value
"Cc1nccn1C[C@H]1CCc2c(c3cccc4c3n2CCC4)C1=O [cilansetron, (R)-(−)-4,5,6,8,9,10-hexahydro-10-[(2-methyl-1H-imidazol-1-yl)methyl]-11H-pyrido-[3,2,1-jk]-carbazol-11-one]",Cervical Disc Lesion,1 (<1%) n (%)
same,Chest Discomfort,1 (<1%) n (%)
same,Chest Pain,12 (<1%) n (%)
same,Chromaturia,1 (<1%) n (%)
same,Chronic Obstructive Airways Disease Exacerbated,1 (<1%) n (%)
same,Clavicle Fracture,1 (<1%) n (%)
same,Contusion,2 (<1%) n (%)
same,Coronary Artery Disease NOS,2 (<1%) n (%)
same,Cough,26 (2%) n (%)
same,Cystocele*,1 (<1%) n (%)
same,Dandruff,1 (<1%) n (%)
same,Depressed Mood,1 (<1%) n (%)
same,Depression,21 (1%) n (%)
same,Depression Aggravated,6 (<1%) n (%)
same,Dermatitis Allergic,11 (<1%) n (%)
same,Dermatitis Contact,1 (<1%) n (%)
same,Dermatitis NOS,2 (<1%) n (%)
same,Diabetes Mellitus NOS,3 (<1%) n (%)
same,Diabetes Mellitus Non-Insulin-Dependent,1 (<1%) n (%)
same,Difficulty in Micturition,2 (<1%) n (%)
same,Discoid Lupus Erythematosus,1 (<1%) n (%)
same,Dissociation,1 (<1%) n (%)
same,Distension NOS,3 (<1%) n (%)
same,Dry Skin,1 (<1%) n (%)
same,Dysmenorrhoea*,2 (<1%) n (%)
same,Dyspnoea Exacerbated,2 (<1%) n (%)
same,Dyspnoea NOS,5 (<1%) n (%)
same,Dysuria,5 (<1%) n (%)
same,Eczema,3 (<1%) n (%)
same,Epidermal Cyst,1 (<1%) n (%)
same,Epistaxis,2 (<1%) n (%)
same,Erectile Dysfunction NOS*,2 (<1%) n (%)
same,Erythema,1 (<1%) n (%)
same,Extrasystoles NOS,2 (<1%) n (%)
same,Face Injury,2 (<1%) n (%)
same,Fall,2 (<1%) n (%)
same,Fatigue,20 (1%) n (%)
same,Fear of Falling,1 (<1%) n (%)
same,Fibula Fracture,1 (<1%) n (%)
same,Fluid Retention,1 (<1%) n (%)
same,Food Intolerance NOS,1 (<1%) n (%)
same,Foot Fracture,2 (<1%) n (%)
same,Forearm Fracture,1 (<1%) n (%)
same,Foreign Body in Eye,1 (<1%) n (%)
same,Genital Discharge,1 (<1%) n (%)
same,Genital Pain NOS,1 (<1%) n (%)
same,Glycosuria,1 (<1%) n (%)
same,Gout,1 (<1%) n (%)
same,Groin Pain,2 (<1%) n (%)
same,Gynaecomastia*,1 (<1%) n (%)
same,Haematuria,2 (<1%) n (%)
same,Hand Fracture,1 (<1%) n (%)
same,Hangover,1 (<1%) n (%)
same,Head Injury,3 (<1%) n (%)
same,Heat Rash,1 (<1%) n (%)
same,Hoarseness,1 (<1%) n (%)
same,Hunger,1 (<1%) n (%)
same,Hypercholesterolaemia,8 (<1%) n (%)
same,Hypercholesterolaemia Aggravated,1 (<1%) n (%)
same,Hyperglycaemia NOS,4 (<1%) n (%)
same,Hyperkalaemia,1 (<1%) n (%)
same,Hyperlipidaemia NOS,3 (<1%) n (%)
same,Hypertriglyceridaemia,8 (<1%) n (%)
same,Hypokalaemia,3 (<1%) n (%)
same,Hyponatraemia Aggravated,1 (<1%) n (%)
same,Hypotrichosis,4 (<1%) n (%)
same,Influenza Like Illness,8 (<1%) n (%)
same,Inguinal Mass,1 (<1%) n (%)
same,Injury NOS,1 (<1%) n (%)
same,Insomnia,20 (1%) n (%)
same,Intervertebral Disc Herniation,2 (<1%) n (%)
same,Joint Dislocation,1 (<1%) n (%)
same,Joint Sprain,3 (<1%) n (%)
same,Joint Stiffness,2 (<1%) n (%)
same,Joint Swelling,2 (<1%) n (%)
same,Laceration,2 (<1%) n (%)
same,Laryngitis NOS,3 (<1%) n (%)
same,Lethargy,1 (<1%) n (%)
same,Leukocyturia,2 (<1%) n (%)
same,Libido Decreased,1 (<1%) n (%)
same,Ligament Injury NOS,4 (<1%) n (%)
same,Limb Injury NOS,8 (<1%) n (%)
same,Localised Osteoarthritis,2 (<1%) n (%)
same,Loin Pain,1 (<1%) n (%)
same,Loss of Libido,1 (<1%) n (%)
same,Major Depressive Disorder NOS,1 (<1%) n (%)
same,Malaise,2 (<1%) n (%)
same,Maxillary Sinusitis,5 (<1%) n (%)
same,Menopausal Symptoms*,1 (<1%) n (%)
same,Menorrhagia*,1 (<1%) n (%)
same,Menses Delayed*,1 (<1%) n (%)
same,Mental Disorder NOS,1 (<1%) n (%)
same,Monoarthritis,2 (<1%) n (%)
same,Mood Alteration NOS,1 (<1%) n (%)
same,Mood Swings,2 (<1%) n (%)
same,Muscle Cramps,6 (<1%) n (%)
same,Muscle Injury NOS,2 (<1%) n (%)
same,Muscle Spasms,2 (<1%) n (%)
same,Muscle Strain,7 (<1%) n (%)
same,Muscle Tightness,1 (<1%) n (%)
same,Muscle Twitching,1 (<1%) n (%)
same,Musculoskeletal Chest Pain,2 (<1%) n (%)
same,Musculoskeletal Discomfort,1 (<1%) n (%)
same,Musculoskeletal Pain,1 (<1%) n (%)
same,Myalgia,11 (<1%) n (%)
same,Myocardial Ischaemia,4 (<1%) n (%)
same,Nail Discolouration,1 (<1%) n (%)
same,Nail Disorder NOS,1 (<1%) n (%)
same,Nasal Congestion,2 (<1%) n (%)
same,Nasal Ulcer,1 (<1%) n (%)
same,Neck Injury NOS,1 (<1%) n (%)
same,Neck Pain,8 (<1%) n (%)
same,Neck Stiffness,1 (<1%) n (%)
